Assay: osmotic coefficient (dimensionless); mn = molality of the nth substance listed, in mol/kg
Details: 101 kPa, Liquid

O=S(=O)([O-])[O-].[Ca+2] [calcium sulfate] + O
Details | osmotic coefficient
273.12 K, m1 = 0.00937 | 0.732
273.12 K, m1 = 0.00952 | 0.731
273.12 K, m1 = 0.01046 | 0.723
273.12 K, m1 = 0.01092 | 0.719
273.12 K, m1 = 0.011 | 0.719
273.13 K, m1 = 0.00526 | 0.78
273.13 K, m1 = 0.0056 | 0.774
273.13 K, m1 = 0.00625 | 0.766
273.13 K, m1 = 0.0067 | 0.76
273.13 K, m1 = 0.00714 | 0.755
273.13 K, m1 = 0.00742 | 0.751
273.13 K, m1 = 0.00782 | 0.747
273.13 K, m1 = 0.00915 | 0.734
273.14 K, m1 = 0.00418 | 0.798
273.14 K, m1 = 0.00487 | 0.786
